Results taken from patent US10669272B2, “Substituted naphthyridinone compounds useful as T cell activators” (BRISTOL-MYERS SQUIBB COMPANY, priority 2018, dated 2020).
Where two headings read alike, the source gives them in different places.

Columns and labels:
human DGKα = target: T1, human DGKα (Homo sapiens, UniProt P23743); experiment: DGKα LIPGLO assay (extruded liposome substrate), in vitro DGK inhibition; assay type: biochemical; conditions: liposome (LIPGLO) assay; read-out: DGKa LIPGLO IC50
T1 construct: TVMV protease cleavage site (C); Hexa-His (C); made in house; host or cells: Sf9 insect cells (baculovirus, Bac-to-Bac)
T1 sequence (P23743 with tags, fused parts or gaps): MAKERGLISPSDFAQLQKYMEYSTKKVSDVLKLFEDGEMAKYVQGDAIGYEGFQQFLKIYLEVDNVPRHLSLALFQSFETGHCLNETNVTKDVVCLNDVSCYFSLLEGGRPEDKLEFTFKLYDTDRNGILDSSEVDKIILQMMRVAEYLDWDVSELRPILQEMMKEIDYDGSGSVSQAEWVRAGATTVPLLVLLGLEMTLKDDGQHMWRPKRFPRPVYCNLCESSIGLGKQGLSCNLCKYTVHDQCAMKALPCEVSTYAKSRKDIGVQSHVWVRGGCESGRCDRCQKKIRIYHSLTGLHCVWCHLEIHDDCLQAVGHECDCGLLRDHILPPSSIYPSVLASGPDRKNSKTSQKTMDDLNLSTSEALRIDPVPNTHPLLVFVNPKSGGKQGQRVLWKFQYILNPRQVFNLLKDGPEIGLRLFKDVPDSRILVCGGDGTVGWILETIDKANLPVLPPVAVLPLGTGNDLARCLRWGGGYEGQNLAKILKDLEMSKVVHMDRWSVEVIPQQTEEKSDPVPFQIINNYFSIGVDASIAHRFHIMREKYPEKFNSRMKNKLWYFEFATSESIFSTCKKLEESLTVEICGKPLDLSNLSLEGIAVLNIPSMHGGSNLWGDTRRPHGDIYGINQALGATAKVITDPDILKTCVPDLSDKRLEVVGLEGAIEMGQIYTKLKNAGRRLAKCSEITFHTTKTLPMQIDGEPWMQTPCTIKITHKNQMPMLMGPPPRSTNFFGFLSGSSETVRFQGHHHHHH

naïve human CD8 T cells = experiment: Human CD8 T cells IFN-γ assay; assay type: cell-based; conditions: normalized to 3 μM reference compound with anti-CD3 plus anti-CD28 as 100% activation, read-out: HuCD8 INFG Normalized EC50;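 further: Naïve human CD8 T cells stimulated with plate-bound anti-CD3 and soluble anti-CD28, IFN-γ in supernatant quantified by AlphaLISA and converted to pg/mL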
human DGKζ = target: T2, human DGKζ (Homo sapiens, UniProt Q13574); experiment: DGKζ LIPGLO assay (extruded liposome substrate), in vitro DGK inhibition; assay type: biochemical; conditions: liposome (LIPGLO) assay; read-out: DGKz LIPGLO IC50
T2 construct: TVMV protease cleavage site (C); Hexa-His (C); made in house; host or cells: Sf9 insect cells (baculovirus, Bac-to-Bac)
T2 sequence (Q13574 with tags, fused parts or gaps isoform Q13574-4): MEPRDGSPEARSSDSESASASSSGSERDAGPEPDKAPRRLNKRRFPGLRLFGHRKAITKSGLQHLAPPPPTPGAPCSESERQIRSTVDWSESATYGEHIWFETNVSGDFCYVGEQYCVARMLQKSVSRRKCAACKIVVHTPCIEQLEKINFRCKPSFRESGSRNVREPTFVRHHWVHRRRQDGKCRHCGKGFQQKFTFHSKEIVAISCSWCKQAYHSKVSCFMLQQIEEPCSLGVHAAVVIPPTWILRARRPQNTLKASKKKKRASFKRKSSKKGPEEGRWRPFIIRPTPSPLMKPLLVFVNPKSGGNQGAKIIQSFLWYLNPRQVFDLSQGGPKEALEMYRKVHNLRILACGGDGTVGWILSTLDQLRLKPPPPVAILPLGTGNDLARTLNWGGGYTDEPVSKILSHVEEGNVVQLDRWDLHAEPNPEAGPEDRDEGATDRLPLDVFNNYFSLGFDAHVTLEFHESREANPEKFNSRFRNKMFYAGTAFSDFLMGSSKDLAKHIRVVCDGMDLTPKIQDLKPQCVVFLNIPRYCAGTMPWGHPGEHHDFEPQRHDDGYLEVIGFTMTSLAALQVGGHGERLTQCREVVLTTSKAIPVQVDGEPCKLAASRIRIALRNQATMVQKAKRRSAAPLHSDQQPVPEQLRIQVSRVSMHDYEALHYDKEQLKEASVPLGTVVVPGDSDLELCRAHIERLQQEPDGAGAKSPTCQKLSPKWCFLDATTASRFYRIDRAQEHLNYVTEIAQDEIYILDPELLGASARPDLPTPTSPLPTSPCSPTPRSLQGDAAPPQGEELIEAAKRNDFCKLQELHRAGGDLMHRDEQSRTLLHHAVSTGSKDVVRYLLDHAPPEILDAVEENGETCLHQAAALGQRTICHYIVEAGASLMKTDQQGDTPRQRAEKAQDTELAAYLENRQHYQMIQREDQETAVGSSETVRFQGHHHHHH

Row | Structure (SMILES) | IC50 (human DGKα) [µM] | IC50 (human DGKζ) [µM] | EC50 (naïve human CD8 T cells; Homo sapiens, T-cell, 20 h) [µM] | EC50 (naïve human CD8 T cells) [µM]
1 | COC(=O)C1CN(c2cc(=O)n(C)c3ccc(C#N)nc23)CCN1C(c1ccc(F)cc1)c1ccc(F)cc1OC (single isomer, unassigned) [Example 68, Methyl 4-(6-cyano-1-methyl-2-oxo-1,2-dihydro-1,5-naphthyridin-4-yl)-1-((4-fluoro-2-methoxyphenyl)(4-fluorophenyl)methyl)piperazine-2-carboxylate] | 18 | 0.25 | – | 0.011
2 | COc1ccc2c(n1)c(N1C[C@@H](C)N(C(c3ccccc3)c3ccc(F)cc3)C[C@@H]1C)cc(=O)n2C (single isomer, unassigned) [Example 239] | 5.9 | 64 | – | 10
3 | C[C@@H]1CN(c2cc(=O)n(C)c3ccc(C#N)nc23)[C@@H](C)CN1Cc1c(F)cc(C#N)cc1F [Example 267, 8-[(2S,5R)-4-[(4-cyano-2,6-difluorophenyl)methyl]-2,5-dimethylpiperazin-1-yl]-5-methyl-6-oxo-5,6-dihydro-1,5-naphthyridine-2-carbonitrile] | 0.39 | 1.6 | 10 | –
4 | Cn1c(=O)cc(N2CCN(C(c3ccc(F)cc3)c3ccc(F)cc3)CC2C#N)c2nc(C#N)ccc21 (single isomer, unassigned) [Example 144, 8-(4-(bis(4-fluorophenyl)methyl)-2-cyanopiperazin-1-yl)-5-methyl-6-oxo-5,6-dihydro-1,5-naphthyridine-2-carbonitrile] | 1.4 | 2.4 | 1.2 | –
5 | Cn1c(=O)cc(N2CCN(C(c3ccc(F)cc3)c3ccc(F)cc3)CC2CO)c2nc(C#N)ccc21 (single isomer, unassigned) [Example 148, 8-(4-(bis(4-fluorophenyl)methyl)-2-(hydroxymethyl)piperazin-1-yl)-5-methyl-6-oxo-5,6-dihydro-1,5-naphthyridine-2-carbonitrile] | 240 | 75 | – | 0.42
6 | Cn1c(=O)cc(N2CCN(C(c3ccc(F)cc3)c3ccc(F)cc3)CC2CO)c2nc(C#N)ccc21 (racemic) [Example 146, 8-(4-(bis(4-fluorophenyl)methyl)-2-(hydroxymethyl)piperazin-1-yl)-5-methyl-6-oxo-5,6-dihydro-1,5-naphthyridine-2-carbonitrile] | 84 | 14 | 0.66 | –
7 | COC(=O)C1CN(C(c2ccc(F)cc2)c2ccc(F)cc2)CCN1c1cc(=O)n(C)c2ccc(C#N)nc12 (single isomer, unassigned) [Example 137, Methyl 4-(bis(4-fluorophenyl)methyl)-1-(6-cyano-1-methyl-2-oxo-1,2-dihydro-1,5-naphthyridin-4-yl)piperazine-2-carboxylate] | 240 | 33 | – | 1.5
8 | C[C@@H]1CN(c2c(C#N)c(=O)n(C)c3ccc(Br)nc23)[C@@H](C)CN1C(c1ccc(F)cc1)c1ccc(F)cc1 [Example 158, 4-((2S,5R)-4-(bis(4-fluorophenyl)methyl)-2,5-dimethylpiperazin-1-yl)-6-bromo-1-methyl-2-oxo-1,2-dihydro-1,5-naphthyridine-3-carbonitrile] | 3.6 | 13 | 0.11 | –
9 | Cn1c(=O)cc(N2CCN(C(c3ccc(F)cc3)c3ccc(F)cc3)CC2CF)c2nc(C#N)ccc21 (single isomer, unassigned) [Example 150, 8-(4-(bis(4-fluorophenyl)methyl)-2-(fluoromethyl)piperazin-1-yl)-5-methyl-6-oxo-5,6-dihydro-1,5-naphthyridine-2-carbonitrile] | 240 | 29 | – | 10
10 | COc1ccc2c(n1)c(N1C[C@@H](C)N(C(c3ccc(F)cc3)c3ccc(Cl)cc3)C[C@@H]1C)cc(=O)n2C (stereo partly drawn) [Example 240, 4-[(2S,5R)-4-[(4-chlorophenyl)(4-fluorophenyl)methyl]-2,5-dimethylpiperazin-1-yl]-6-methoxy-1-methyl-1,2-dihydro-1,5-naphthyridin-2-one] | 15 | 20 | 12 | –
11 | C[C@@H]1CN(C(c2ccc(F)cc2)c2ccc(F)cc2)[C@@H](C)CN1c1c(C#N)c(=O)n(C)c2ccc(C#N)nc12 [Example 6, 8-((2R,5S)-4-(bis(4-fluorophenyl)methyl)-2,5-dimethylpiperazin-1-yl)-5-methyl-6-oxo-5,6-dihydro-1,5-naphthyridine-2,7-dicarbonitrile] | 25 | 16 | 0.56 | –
12 | Cn1c(=O)cc(N2CCN(C(c3ccc(F)cc3)c3ccc(F)cc3)CC2C(N)=O)c2nc(C#N)ccc21 (single isomer, unassigned) [Example 142, 4-(bis(4-fluorophenyl)methyl)-1-(6-cyano-1-methyl-2-oxo-1,2-dihydro-1,5-naphthyridin-4-yl)piperazine-2-carboxamide] | 40 | 65 | 10 | –
13 | Cn1c(=O)cc(N2CCN(C(c3ccc(F)cc3)c3ccc(F)cc3)CC2CF)c2nc(C#N)ccc21 (single isomer, unassigned) [Example 151, 8-(4-(bis(4-fluorophenyl)methyl)-2-(fluoromethyl)piperazin-1-yl)-5-methyl-6-oxo-5,6-dihydro-1,5-naphthyridine-2-carbonitrile] | 3.6 | 8.8 | – | 0.15

Now from value to compound, other results behind:

Row | IC50 (human DGKα) [µM] | IC50 (human DGKζ) [µM] | Structure (SMILES) | EC50 (naïve human CD8 T cells; Homo sapiens, T-cell, 20 h) [µM] | EC50 (naïve human CD8 T cells) [µM]
14 | 2.3 | 19 | Cn1c(=O)c(C#N)c(N2CCN(C(c3ccc(F)cc3)c3ccc(F)cc3)C(CO)C2)c2nc(Br)ccc21 (stereo not drawn) [Example 17, 4-(4-(bis(4-fluorophenyl)methyl)-3-(hydroxymethyl)piperazin-1-yl)-6-bromo-1-methyl-2-oxo-1,2-dihydro-1,5-naphthyridine-3-carbonitrile] | 6.5 | –
15 | 140 | 94 | Cn1c(=O)c(C#N)c(N2CCN(C(c3ccc(F)cc3)c3ccc(F)cc3)C(C(=O)O)C2)c2nc(C#N)ccc21 (single isomer, unassigned) [Example 53, 1-(bis(4-fluorophenyl)methyl)-4-(3,6-dicyano-1-methyl-2-oxo-1,2-dihydro-1,5-naphthyridin-4-yl)piperazine-2-carboxylic acid] | 10 | –
16 | 0.24 | 94 | Cn1c(=O)cc(N2CCN(C(c3ccc(F)cc3)c3ccc(F)cc3)C(C)(C)C2)c2nc(C#N)ccc21 [Example 171, 8-(4-(bis(4-fluorophenyl)methyl)-3,3-dimethylpiperazin-1-yl)-5-methyl-6-oxo-5,6-dihydro-1,5-naphthyridine-2-carbonitrile] | 10 | –
17 | 240 | 3.5 | Cn1c(=O)cc(N2CCN(C(c3ccc(F)cc3)c3ccc(F)cc3)C(C(=O)NC3CC3)C2)c2nc(C#N)ccc21 (racemic) [Example 46, 1-(bis(4-fluorophenyl)methyl)-4-(6-cyano-1-methyl-2-oxo-1,2-dihydro-1,5-naphthyridin-4-yl)-N-cyclopropylpiperazine-2-carboxamide] | 4.7 | –
18 | 0.93 | 1.4 | C[C@@H]1CN(c2cc(=O)n(C)c3ccc(C#N)nc23)[C@@H](C)CN1C(c1ccccc1)c1ccccc1 [Example 237, 8-[(2S,5R)-4-(diphenylmethyl)-2,5-dimethylpiperazin-1-yl]-5-methyl-6-oxo-5,6-dihydro-1,5-naphthyridine-2-carbonitrile] | 0.039 | –
19 | 52 | 140 | Cn1c(=O)c(C#N)c(N2CCN(C(c3ccc(F)cc3)c3ccc(F)cc3)C(C(N)=O)C2)c2nc(C#N)ccc21 (single isomer, unassigned) [Example 57, 1-(bis (4-fluorophenyl)methyl)-4-(3,6-dicyano-1-methyl-2-oxo-1,2-dihydro-1,5-naphthyridin-4-yl)piperazine-2-carboxamide] | 6 | –
20 | 14 | 46 | Cn1c(=O)cc(N2CCN(C(c3ccc(F)cc3)c3ccc(F)cc3)C(C(N)=O)C2)c2nc(C#N)ccc21 (single isomer, unassigned) [Example 41, 1-(bis(4-fluorophenyl)methyl)-4-(6-cyano-1-methyl-2-oxo-1,2-dihydro-1,5-naphthyridin-4-yl)piperazine-2-carboxamide] | – | 1.5
21 | 150 | 25 | Cn1c(=O)cc(N2CCN(C(c3ccc(F)cc3)c3ccc(F)cc3)CC2C(=O)NC2CC2)c2nc(C#N)ccc21 (single isomer, unassigned) [Example 140, 4-(bis(4-fluorophenyl)methyl)-1-(6-cyano-1-methyl-2-oxo-1,2-dihydro-1,5-naphthyridin-4-yl)-N-cyclopropylpiperazine-2-carboxamide] | – | 6.6
22 | 82 | 95 | Cn1c(=O)cc(N2CCN(C(c3ccc(F)cc3)c3ccc(F)cc3)CC2C(=O)O)c2nc(C#N)ccc21 (stereo not drawn) [Example 138, 4-(bis(4-fluorophenyl)methyl)-1-(6-cyano-1-methyl-2-oxo-1,2-dihydro-1,5-naphthyridin-4-yl)piperazine-2-carboxylic acid] | 10 | –
23 | 48 | 15 | Cn1c(=O)cc(N2CCN(C(c3ccc(F)cc3)c3ccc(F)cc3)CC2CO)c2nc(C#N)ccc21 (single isomer, unassigned) [Example 147, 8-(4-(bis(4-fluorophenyl)methyl)-2-(hydroxymethyl)piperazin-1-yl)-5-methyl-6-oxo-5,6-dihydro-1,5-naphthyridine-2-carbonitrile] | – | 2
